Results on three compounds are retold here after patent US20210283056A1, “COMPOSITIONS FOR THERAPEUTICS PRESCREENING” (BARCODE DIAGNOSTICS LTD., priority 2018, published 2021).

SMILES strings stand for the structures. Read-outs that look alike come from different tables or passages of the source.

Experiment [1] concerns 4T1 derived cancers and metastases. The note with it: cited from earlier work; for Effect on tumor growth: Kiew et al., 2012.
The next experiment relates to Cells growing in culture. The experiment is described as follows: Barcode quantification by Real Time PCR, dead vs. live cells. It is filed as cell-based. As to the method: Cells growing in culture were treated with the liposome mixes and 48 hours after exposure the cell were subjected to viability assay. Dead cells from each study group (in triplicates) were first pelleted by centrifugation of supernatant and kept at −20 C until further analysis. Fresh medium supplemented with 10% Presto Blue Reagent (ThermoFisher Scientific) was added to cells and incubated at 37 C for about 90 minutes. 100 ul of each well was transferred to a black 96 wells plate and Fluorescence was recorded ([…]). Viability was calculated as Fluorescence of each sample relative to fluorescence of non-treated cells. Both mixes killed a similar amount of cells. Immediately following the viability assay, adherent cells were detached by addition of trypsin to the wells. Barcode analysis by Real Time PCR was performed as follows. The different barcodes were analyzed using a ThermoFisher Scientific Quantstudiol PCR System. The assay was run with TaqMan Fast Advanced master mix (ThermoFisher Scientific), primers (IDT) and a barcode specific probe labeled on the 5′ end with fluorescent FAM dye and on its 3′ end with a nonfluorescent quencher linked to a Minor Groove Binder (MGB) (ThermoFisher Scientific). […] After preparation of all dilutions, Real Time PCR was used to validate the standard curve. A reaction was run for all barcodes together. Reaction settings were as follow: 2 μL of sample was run in a Real Time Quantstudiol PCR instrument, using fast template protocol. Each sample was run in duplicate. Each barcode tested was compared to a standard curve run on the same plate. Each barcode reaction comprised at least 4 NTCs. In the Set Up, target (barcode tested), task (sample=Unknown/Standard/NTC), name and biological group were assigned to each sample. […] Analysis calculated average amount of barcode copies between replicate samples. This quantity was obtained for 2 μl of sample (volume of sample in RT-PCR reaction) and was adjusted to the final volume of the sample. The ratio of each barcode found in dead vs. live cells was calculated.

In experiment [2] the test system is triple negative breast cancer tumors. The experiment in a line: Barcode analysis in live and dead tumor cells after injection of liposome mixes. The note with it: 5%. It is filed as in vivo, BALB/c female mice. The text has this:
FIGS. 1A-D: Detection of barcodes from liposome mixes with equal relative drug concentrations. […] Potency of the drugs was defined as the ratio of the amount of a barcode in dead cells to the amount of that barcode in live cells. (1D) A bar chart showing fluorescence from dead cells after treatment with two mixes of liposomes.
Each drug has its own specific effective therapeutic dose (ETD), and in order to test efficacy it is reasonable that each liposome mix (a mix of all three types of liposomes to be injected together) should have the same relative amount of each drug. That is, in order to determine an ideal dose, batches of mixed liposomes were generated in which all three drugs were present in a concentration that was either 5%, 1% or 0.1% of the effective therapeutic dose. Table 2 provides the amounts (in ul) of each liposome batch that were added to the mix in order to provide each total dose.
Cell from a triple negative breast cancer tumor were transplanted to the fat pad of BALB/c female mice and allowed to grow to form tumors in the mice. The mice were separated into 3 groups and then each group was injected with the 5%, 1% or 0.1% liposome mixes. 48 hours post injection the tumors were excised, and live/dead cell analysis was performed by FACS, followed by barcode analysis in live and dead cells separately.

Where [3] appears, read: first batch of liposomes (equal liposome number).

Turning to `N.N.[Cl][Pt][Cl]` [cisplatin], in experiment [1] (reported), the “Sensitivity of 4T1 derived cancers and metastases” value is given as “highly sensitive”.
For the compound `COc1cccc2c1C(=O)c1c(O)c3c(c(O)c1C2=O)C[C@@](O)(C(=O)CO)C[C@@H]3O[C@H]1C[C@H](N)[C@H](O)[C@H](C)O1` [doxorubicin], the “Effective at killing the cells” value in the experiment with Cells growing in culture (setting [3]) is reported as “effective”. Besides, the “Effective at killing the cells” value in the experiment on Cells growing in culture (second batch of liposomes (equal relative drug concentration)) is reported as “effective”. Moreover, in experiment [1] (reported), the “Resistance of 4T1 cells” value was “become resistant”; the “Sensitivity of 4T1 derived cancers and metastases” value is given as “less so”.
For the compound `Nc1ccn([C@@H]2O[C@H](CO)[C@@H](O)C2(F)F)c(=O)n1` [Gemcitabine], in experiment [2] (1% or 0.1% mixes, patent regards it as likely artifact), the “Effectiveness relative to the other two drugs” value is reported as more than 10 fold. Besides, in experiment [2] (1% or 0.1% of ETD liposome mixes, 48 hours post injection), the “Potency (barcode in dead cells to live cells)” value is on record as “most effective treatment”. For the same compound, the “Effective at killing the cells” value with Cells growing in culture (setting [3]) was “effective”. Besides, the entries for the “Effect on tumor growth” value in experiment [1] (first couple of days of treatment) and in experiment [1] (later time points) were “retards tumor growth” and “not be effective”, respectively.
